Data reported in the NIST ThermoML archive (doi:10.1021/je600573w).
± gives the expanded uncertainty stated by the source.

Columns and labels:
[1] = molar heat capacity at constant pressure; details: 101.33 kPa, Liquid, Small sample (50 mg) DSC
[2] = 101.33 kPa, Liquid, Vibrating tube method

Clc1ccc(Cl)c(Cl)c1Cl [1,2,3,4-tetrachlorobenzene]
[1]
Details | molar heat capacity at constant pressure [J/K/mol]
327.15 K | 225.17 ± 3.5
329.15 K | 225.49 ± 3.5
331.15 K | 225.82 ± 3.5
333.15 K | 226.14 ± 3.5
335.15 K | 226.47 ± 3.5
337.15 K | 226.8 ± 3.5
339.15 K | 227.13 ± 3.5
341.15 K | 227.46 ± 3.5
343.15 K | 227.8 ± 3.5
345.15 K | 228.13 ± 3.5
347.15 K | 228.47 ± 3.5
349.15 K | 228.81 ± 3.5
351.15 K | 229.16 ± 3.5
353.15 K | 229.5 ± 3.6

Clc1cccc(Cl)c1Cl [1,2,3-trichlorobenzene]
[1]
Details | molar heat capacity at constant pressure [J/K/mol]
327.15 K | 201.44 ± 3.1
329.15 K | 201.8 ± 3.1
331.15 K | 202.16 ± 3.1
333.15 K | 202.52 ± 3.1
335.15 K | 202.88 ± 3.1
337.15 K | 203.25 ± 3.1
339.15 K | 203.62 ± 3.1
341.15 K | 204 ± 3.2
343.15 K | 204.38 ± 3.2
345.15 K | 204.75 ± 3.2
347.15 K | 205.14 ± 3.2
349.15 K | 205.52 ± 3.2
351.15 K | 205.91 ± 3.2
353.15 K | 206.3 ± 3.2

Clc1ccc(Cl)c(Cl)c1 [1,2,4-trichlorobenzene]
Details | mass density [kg/m3] | molar heat capacity at constant pressure [J/K/mol]
[1], 293.15 K | – | 194.25 ± 3
[1], 295.15 K | – | 194.57 ± 3
[1], 297.15 K | – | 194.9 ± 3
[1], 299.15 K | – | 195.23 ± 3
[1], 301.15 K | – | 195.57 ± 3
[1], 303.15 K | – | 195.92 ± 3
[1], 305.15 K | – | 196.27 ± 3
[1], 307.15 K | – | 196.63 ± 3
[1], 309.15 K | – | 196.99 ± 3
[1], 311.15 K | – | 197.35 ± 3.1
[1], 313.15 K | – | 197.72 ± 3.1
[1], 315.15 K | – | 198.09 ± 3.1
[1], 317.15 K | – | 198.47 ± 3.1
[1], 319.15 K | – | 198.85 ± 3.1
[1], 321.15 K | – | 199.23 ± 3.1
[1], 323.15 K | – | 199.61 ± 3.1
[1], 325.15 K | – | 200 ± 3.1
[1], 327.15 K | – | 200.38 ± 3.1
[1], 329.15 K | – | 200.77 ± 3.1
[1], 331.15 K | – | 201.16 ± 3.1
[1], 333.15 K | – | 201.55 ± 3.1
[1], 335.15 K | – | 201.93 ± 3.1
[1], 337.15 K | – | 202.32 ± 3.1
[1], 339.15 K | – | 202.71 ± 3.1
[1], 341.15 K | – | 203.09 ± 3.1
[1], 343.15 K | – | 203.47 ± 3.1
[1], 345.15 K | – | 203.85 ± 3.2
[1], 347.15 K | – | 204.23 ± 3.2
[1], 349.15 K | – | 204.61 ± 3.2
[1], 351.15 K | – | 204.98 ± 3.2
[1], 353.15 K | – | 205.35 ± 3.2
[2], 288.15 K | 1460.65 ± 0.82 | –
[2], 298.15 K | 1448.67 ± 0.81 | –
[2], 308.15 K | 1436.73 ± 0.79 | –
[2], 318.15 K | 1424.8 ± 0.8 | –
[2], 328.15 K | 1412.89 ± 0.76 | –
[2], 338.15 K | 1400.98 ± 0.75 | –

Brc1ccccc1Br [1,2-dibromobenzene]
Details | mass density [kg/m3] | molar heat capacity at constant pressure [J/K/mol]
[1], 283.15 K | – | 177.44 ± 2.8
[1], 285.15 K | – | 177.83 ± 2.8
[1], 287.15 K | – | 178.12 ± 2.8
[1], 289.15 K | – | 178.43 ± 2.8
[1], 291.15 K | – | 178.75 ± 2.8
[1], 293.15 K | – | 179.08 ± 2.8
[1], 295.15 K | – | 179.42 ± 2.8
[1], 297.15 K | – | 179.76 ± 2.8
[1], 299.15 K | – | 180.12 ± 2.8
[1], 301.15 K | – | 180.48 ± 2.8
[1], 303.15 K | – | 180.85 ± 2.8
[1], 305.15 K | – | 181.22 ± 2.8
[1], 307.15 K | – | 181.6 ± 2.8
[1], 309.15 K | – | 181.99 ± 2.8
[1], 311.15 K | – | 182.38 ± 2.8
[1], 313.15 K | – | 182.77 ± 2.8
[1], 315.15 K | – | 183.17 ± 2.8
[1], 317.15 K | – | 183.57 ± 2.8
[1], 319.15 K | – | 183.97 ± 2.9
[1], 321.15 K | – | 184.38 ± 2.9
[1], 323.15 K | – | 184.79 ± 2.9
[1], 325.15 K | – | 185.19 ± 2.9
[1], 327.15 K | – | 185.6 ± 2.9
[1], 329.15 K | – | 186.01 ± 2.9
[1], 331.15 K | – | 186.42 ± 2.9
[1], 333.15 K | – | 186.82 ± 2.9
[1], 335.15 K | – | 187.23 ± 2.9
[1], 337.15 K | – | 187.63 ± 2.9
[1], 339.15 K | – | 188.03 ± 2.9
[1], 341.15 K | – | 188.42 ± 2.9
[1], 343.15 K | – | 188.82 ± 2.9
[1], 345.15 K | – | 189.2 ± 2.9
[1], 347.15 K | – | 189.58 ± 2.9
[1], 349.15 K | – | 189.96 ± 2.9
[1], 351.15 K | – | 190.33 ± 3
[1], 353.15 K | – | 190.69 ± 3
[2], 288.15 K | 1987.92 ± 1.6 | –
[2], 298.15 K | 1972.75 ± 1.5 | –
[2], 308.15 K | 1957.62 ± 1.5 | –
[2], 318.15 K | 1942.51 ± 1.5 | –
[2], 328.15 K | 1927.42 ± 1.5 | –
[2], 338.15 K | 1912.34 ± 1.4 | –

Clc1ccccc1Cl [1,2-dichlorobenzene]
Details | mass density [kg/m3] | molar heat capacity at constant pressure [J/K/mol]
[1], 283.15 K | – | 167.68 ± 2.6
[1], 285.15 K | – | 168.06 ± 2.6
[1], 287.15 K | – | 168.44 ± 2.6
[1], 289.15 K | – | 168.83 ± 2.6
[1], 291.15 K | – | 169.23 ± 2.6
[1], 293.15 K | – | 169.64 ± 2.6
[1], 295.15 K | – | 170.05 ± 2.6
[1], 297.15 K | – | 170.47 ± 2.6
[1], 299.15 K | – | 170.89 ± 2.6
[1], 301.15 K | – | 171.32 ± 2.6
[1], 303.15 K | – | 171.76 ± 2.7
[1], 305.15 K | – | 172.2 ± 2.7
[1], 307.15 K | – | 172.64 ± 2.7
[1], 309.15 K | – | 173.09 ± 2.7
[1], 311.15 K | – | 173.54 ± 2.7
[1], 313.15 K | – | 174 ± 2.7
[1], 315.15 K | – | 174.46 ± 2.7
[1], 317.15 K | – | 174.92 ± 2.7
[1], 319.15 K | – | 175.38 ± 2.7
[1], 321.15 K | – | 175.85 ± 2.7
[1], 323.15 K | – | 176.32 ± 2.7
[1], 325.15 K | – | 176.79 ± 2.7
[1], 327.15 K | – | 177.26 ± 2.8
[1], 329.15 K | – | 177.73 ± 2.8
[1], 331.15 K | – | 178.2 ± 2.8
[1], 333.15 K | – | 178.67 ± 2.8
[1], 335.15 K | – | 179.14 ± 2.8
[1], 337.15 K | – | 179.61 ± 2.8
[1], 339.15 K | – | 180.07 ± 2.8
[1], 341.15 K | – | 180.54 ± 2.8
[1], 343.15 K | – | 181 ± 2.8
[1], 345.15 K | – | 181.47 ± 2.8
[1], 347.15 K | – | 181.92 ± 2.8
[1], 349.15 K | – | 182.38 ± 2.8
[1], 351.15 K | – | 182.83 ± 2.8
[1], 353.15 K | – | 183.28 ± 2.8
[2], 288.15 K | 1311.76 ± 0.64 | –
[2], 298.15 K | 1300.61 ± 0.63 | –
[2], 308.15 K | 1289.45 ± 0.62 | –
[2], 318.15 K | 1278.29 ± 0.6 | –
[2], 328.15 K | 1267.09 ± 0.59 | –
[2], 338.15 K | 1255.87 ± 0.58 | –
